Measurements taken from patent publication US8735433B1, “Aryl oxadiazole derivatives as sphingosine 1-phosphate (S1P) receptor modulators” (Allergan, Inc., priority 2012, dated 2014).
pEC50: −log10 of the molar value.

Biological target: T1, human S1P1 receptor (Homo sapiens, UniProt P21453)
T1 construct: expressed in transfected cells; membrane preparation
Experiment: GTP γ35S binding assay for S1P1 activity
Type: biochemical
Conditions: membranes of cells stably expressing the S1P1 receptor, test compounds 0.08 to 5,000 nM, 30 min at 25° C.
Protocol: Compounds were synthesized and tested for S1P1 activity using the GTP γ^35S binding assay. These compounds may be assessed for their ability to activate or block activation of the human S1P1 receptor in cells stably expressing the S1P1 receptor.
GTP γ^35S binding was measured in the medium containing (mM) HEPES 25, pH 7.4, MgCl2 10, NaCl 100, dithitothreitol 0.5, digitonin 0.003%, 0.2 nM GTP γ^35S, and 5 μg membrane protein in a volume of 150 μl. Test compounds were included in the concentration range from 0.08 to 5,000 nM unless indicated otherwise. Membranes were incubated with 100 μM 5′-adenylylimmidodiphosphate for 30 min, and subsequently with 10 μM GDP for 10 min on ice. Drug solutions and membrane were mixed, and then reactions were initiated by adding GTP γ^35S and continued for 30 min at 25° C. Reaction mixtures were filtered over Whatman GF/B filters under vacuum, and washed three times with 3 mL of ice-cold buffer (HEPES 25, pH7.4, MgCl2 10 and NaCl 100). Filters were dried and mixed with scintillant, and counted for ^35S activity using a β-counter. Agonist-induced GTP γ^35S binding was obtained by subtracting that in the absence of agonist. Binding data were analyzed using a non-linear regression method. In case of antagonist assay, the reaction mixture contained 10 nM S1P in the presence of test antagonist at concentrations ranging from 0.08 to 5000 nM.

T1 sequence (P21453 whole entry): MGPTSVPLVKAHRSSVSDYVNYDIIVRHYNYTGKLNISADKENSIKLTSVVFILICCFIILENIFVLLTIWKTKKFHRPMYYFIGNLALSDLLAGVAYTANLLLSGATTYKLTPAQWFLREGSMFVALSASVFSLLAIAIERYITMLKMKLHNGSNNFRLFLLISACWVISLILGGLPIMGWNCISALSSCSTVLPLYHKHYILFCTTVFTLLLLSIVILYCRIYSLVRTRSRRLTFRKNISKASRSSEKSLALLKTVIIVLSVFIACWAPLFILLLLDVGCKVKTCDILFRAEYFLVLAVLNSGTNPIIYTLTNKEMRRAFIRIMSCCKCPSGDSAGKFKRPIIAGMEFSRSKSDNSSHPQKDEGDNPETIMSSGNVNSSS

Cc1ccc(CC(c2nc(-c3ccc(CCC(N)(CO)CO)cc3)no2)c2cccs2)cc1C (stereo not drawn)
pEC50: 5.92

Cc1ccc(CC(c2cccc(Cl)c2)c2nc(-c3ccc(CCC(N)(CO)CO)cc3)no2)cc1C (stereo not drawn) [2-amino-2-[2-(4-{5-[1-(3-chlorophenyl)-2-(3,4-dimethylphenyl)ethyl]-1,2,4-oxadiazol-3-yl}phenyl)ethyl]propane-1,3-diol]
pEC50: 6.76

Cc1ccc(CC(c2cc(F)cc(F)c2)c2nc(-c3ccc(CCC(N)(CO)CO)cc3)no2)cc1C (stereo not drawn) [Compound 1, 2-amino-2-[2-(4-{5-[1-(3,5-difluorophenyl)-2-(3,4-dimethylphenyl)ethyl]-1,2,4-oxadiazol-3-yl}phenyl)ethyl]propane-1,3-diol]
pEC50: 7.06
